Measurements taken from US20230085307A1, “PYRIDAZINONE COMPOUND AND HERBICIDE” (NISSAN CHEMICAL CORPORATION, priority 2019, published 2023).

What follows are compounds tested on barnyard grass (assay: Test Example 3: herbicidal effect by foliage application, Wagner pot (Table 18, symbol H)). Details: 320 g/ha.
Assay type: in vivo, barnyard grass (Echinochloa crus-galli)
In short: (§1)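 Plants were sown in alluvial soil held under 0.1–0.5 cm standing water and grown 14 days in a greenhouse at 25–30 °C. An emulsifiable formulation, water-diluted to the set dose, was then sprayed onto the foliage, and effects were scored three weeks later using previously defined criteria.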
In the case of `CCSc1ccccc1-c1sc2c(Cl)cccc2c1-c1c(O)c(C)nn(C)c1=O` [4-090], the “herbicidal effect on barnyard grass (H)” value is reported as 5 (Herbicidal rate of 90% or more (almost completely withered)).
With `CCCC(=O)Oc1c(C)nn(C)c(=O)c1-c1c(-c2cccc(SCC)c2)sc2c(Cl)cccc12` [4-093] the “herbicidal effect on barnyard grass (H)” value was 5 (Herbicidal rate of 90% or more (almost completely withered)).

What follows are compounds tested on Chinese sprangletop (assay: Test Example 3: herbicidal effect by foliage application, Wagner pot (Table 18, symbol D)). Details: 320 g/ha.
Assay type: in vivo, chinese sprangletop (Leptochloa chinensis)
In short: as §1
With `CCSc1ccccc1-c1sc2c(Cl)cccc2c1-c1c(O)c(C)nn(C)c1=O` [4-090] the “herbicidal effect on Chinese sprangletop (D)” value was 3 (Herbicidal rate of 40% or more and less than 70%).
For `CCCC(=O)Oc1c(C)nn(C)c(=O)c1-c1c(-c2cccc(SCC)c2)sc2c(Cl)cccc12` [4-093], the “herbicidal effect on Chinese sprangletop (D)” value was 4 (Herbicidal rate of 70% or more and less than 90%).

The compounds below were run on rice flat sedge (assay: Test Example 3: herbicidal effect by foliage application, Wagner pot (Table 18, symbol E)). Details: 320 g/ha.
Assay type: in vivo, rice flat sedge (Cyperus iria)
In short: as §1
For `CCSc1ccccc1-c1sc2c(Cl)cccc2c1-c1c(O)c(C)nn(C)c1=O` [4-090], the “herbicidal effect on rice flat sedge (E)” value was 2 (Herbicidal rate of 20% or more and less than 40%).
In the case of `CCCC(=O)Oc1c(C)nn(C)c(=O)c1-c1c(-c2cccc(SCC)c2)sc2c(Cl)cccc12` [4-093], the “herbicidal effect on rice flat sedge (E)” value is reported as 4 (Herbicidal rate of 70% or more and less than 90%).

These compounds were tested on southern crabgrass (assay: Test Example 5: herbicidal effect by foliage application, plastic box (Table 20, symbol F)). Details: amount of applied herbicide 320 g/ha; foliage application after 14-day growth; evaluated three weeks after application.
Assay type: in vivo, southern crabgrass (Digitaria ciliaris)
In short: (§2)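 Sow seeds spot-wise in sterilized diluvial soil; cover with ~1.5 cm soil. Grow 14 days in greenhouse, 25° C. to 30° C. Spray foliage with emulsion diluted to predetermined amount. Rate effect after 3 weeks.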
In the case of `CCSc1ccccc1-c1sc2c(Cl)cccc2c1-c1c(O)c(C)nn(C)c1=O` [4-090], the “Herbicidal effect by foliage application, F: southern crabgrass” value is reported as 4 (Herbicidal rate of 70% or more and less than 90%).
For `CCCC(=O)Oc1c(C)nn(C)c(=O)c1-c1c(-c2cccc(SCC)c2)sc2c(Cl)cccc12` [4-093], the “Herbicidal effect by foliage application, F: southern crabgrass” value was 0 (Herbicidal rate of 5% or less (almost no effect)).

The compounds below were run on green foxtail (assay: Test Example 5: herbicidal effect by foliage application, plastic box (Table 20, symbol G)). Details: amount of applied herbicide 320 g/ha; foliage application after 14-day growth; evaluated three weeks after application.
Assay type: in vivo, green foxtail (Setaria viridis)
In short: as §2
With `CCSc1ccccc1-c1sc2c(Cl)cccc2c1-c1c(O)c(C)nn(C)c1=O` [4-090] the “Herbicidal effect by foliage application, G: green foxtail” value was 3 (Herbicidal rate of 40% or more and less than 70%).
In the case of `CCCC(=O)Oc1c(C)nn(C)c(=O)c1-c1c(-c2cccc(SCC)c2)sc2c(Cl)cccc12` [4-093], the “Herbicidal effect by foliage application, G: green foxtail” value is reported as 2 (Herbicidal rate of 20% or more and less than 40%).

Each compound was assayed on barnyard grass (assay: Test Example 5: herbicidal effect by foliage application, plastic box (Table 20, symbol H)). Details: amount of applied herbicide 320 g/ha; foliage application after 14-day growth; evaluated three weeks after application.
Assay type: in vivo, barnyard grass (Echinochloa crus-galli)
In short: as §2
`CCSc1ccccc1-c1sc2c(Cl)cccc2c1-c1c(O)c(C)nn(C)c1=O` [4-090] was tested, and the “Herbicidal effect by foliage application, H: barnyard grass” value was 3 (Herbicidal rate of 40% or more and less than 70%).
`CCCC(=O)Oc1c(C)nn(C)c(=O)c1-c1c(-c2cccc(SCC)c2)sc2c(Cl)cccc12` [4-093] was tested, and the “Herbicidal effect by foliage application, H: barnyard grass” value was 0 (Herbicidal rate of 5% or less (almost no effect)).

The compounds below were run on wild oat (assay: Test Example 5: herbicidal effect by foliage application, plastic box (Table 20, symbol I)). Details: amount of applied herbicide 320 g/ha; foliage application after 14-day growth; evaluated three weeks after application.
Assay type: in vivo, wild oat (Avena fatua)
In short: as §2
In the case of `CCSc1ccccc1-c1sc2c(Cl)cccc2c1-c1c(O)c(C)nn(C)c1=O` [4-090], the “Herbicidal effect by foliage application, I: wild oat” value is reported as 0 (Herbicidal rate of 5% or less (almost no effect)).
`CCCC(=O)Oc1c(C)nn(C)c(=O)c1-c1c(-c2cccc(SCC)c2)sc2c(Cl)cccc12` [4-093] was tested, and the “Herbicidal effect by foliage application, I: wild oat” value was 1 (Herbicidal rate of 5% or more and less than 20%).

The compounds below were run on blackgrass (assay: Test Example 5: herbicidal effect by foliage application, plastic box (Table 20, symbol J)). Details: amount of applied herbicide 320 g/ha; foliage application after 14-day growth; evaluated three weeks after application.
Assay type: in vivo, blackgrass (Alopecurus myosuroides)
In short: as §2
In the case of `CCSc1ccccc1-c1sc2c(Cl)cccc2c1-c1c(O)c(C)nn(C)c1=O` [4-090], the “Herbicidal effect by foliage application, J: blackgrass” value is reported as 0 (Herbicidal rate of 5% or less (almost no effect)).
For `CCCC(=O)Oc1c(C)nn(C)c(=O)c1-c1c(-c2cccc(SCC)c2)sc2c(Cl)cccc12` [4-093], the “Herbicidal effect by foliage application, J: blackgrass” value was 0 (Herbicidal rate of 5% or less (almost no effect)).

These compounds were tested on Italian ryegrass (assay: Test Example 5: herbicidal effect by foliage application, plastic box (Table 20, symbol K)). Details: amount of applied herbicide 320 g/ha; foliage application after 14-day growth; evaluated three weeks after application.
Assay type: in vivo, Italian ryegrass (Lolium multiflorum)
In short: as §2
`CCSc1ccccc1-c1sc2c(Cl)cccc2c1-c1c(O)c(C)nn(C)c1=O` [4-090] was tested, and the “Herbicidal effect by foliage application, K: Italian ryegrass” value was 0 (Herbicidal rate of 5% or less (almost no effect)).
In the case of `CCCC(=O)Oc1c(C)nn(C)c(=O)c1-c1c(-c2cccc(SCC)c2)sc2c(Cl)cccc12` [4-093], the “Herbicidal effect by foliage application, K: Italian ryegrass” value is reported as 0 (Herbicidal rate of 5% or less (almost no effect)).

What follows are compounds tested on windgrass (assay: Test Example 5: herbicidal effect by foliage application, plastic box (Table 20, symbol L)). Details: amount of applied herbicide 320 g/ha; foliage application after 14-day growth; evaluated three weeks after application.
Assay type: in vivo, windgrass (Apera spica-venti)
In short: as §2
For `CCSc1ccccc1-c1sc2c(Cl)cccc2c1-c1c(O)c(C)nn(C)c1=O` [4-090], the “Herbicidal effect by foliage application, L: windgrass” value was 0 (Herbicidal rate of 5% or less (almost no effect)).
With `CCCC(=O)Oc1c(C)nn(C)c(=O)c1-c1c(-c2cccc(SCC)c2)sc2c(Cl)cccc12` [4-093] the “Herbicidal effect by foliage application, L: windgrass” value was 0 (Herbicidal rate of 5% or less (almost no effect)).

These compounds were tested on velvetleaf (assay: Test Example 5: herbicidal effect by foliage application, plastic box (Table 20, symbol M)). Details: amount of applied herbicide 320 g/ha; foliage application after 14-day growth; evaluated three weeks after application.
Assay type: in vivo, velvetleaf (Abutilon theophrasti)
In short: as §2
For `CCSc1ccccc1-c1sc2c(Cl)cccc2c1-c1c(O)c(C)nn(C)c1=O` [4-090], the “Herbicidal effect by foliage application, M: velvetleaf” value was 0 (Herbicidal rate of 5% or less (almost no effect)).
With `CCCC(=O)Oc1c(C)nn(C)c(=O)c1-c1c(-c2cccc(SCC)c2)sc2c(Cl)cccc12` [4-093] the “Herbicidal effect by foliage application, M: velvetleaf” value was 3 (Herbicidal rate of 40% or more and less than 70%).

Each compound was assayed on redroot pigweed (assay: Test Example 5: herbicidal effect by foliage application, plastic box (Table 20, symbol N)). Details: amount of applied herbicide 320 g/ha; foliage application after 14-day growth; evaluated three weeks after application.
Assay type: in vivo, redroot pigweed (Amaranthus retroflexus)
In short: as §2
`CCSc1ccccc1-c1sc2c(Cl)cccc2c1-c1c(O)c(C)nn(C)c1=O` [4-090] was tested, and the “Herbicidal effect by foliage application, N: redroot pigweed” value was 3 (Herbicidal rate of 40% or more and less than 70%).
For `CCCC(=O)Oc1c(C)nn(C)c(=O)c1-c1c(-c2cccc(SCC)c2)sc2c(Cl)cccc12` [4-093], the “Herbicidal effect by foliage application, N: redroot pigweed” value was 3 (Herbicidal rate of 40% or more and less than 70%).

What follows are compounds tested on lambsquarters (assay: Test Example 5: herbicidal effect by foliage application, plastic box (Table 20, symbol O)). Details: amount of applied herbicide 320 g/ha; foliage application after 14-day growth; evaluated three weeks after application.
Assay type: in vivo, lambsquarters (Chenopodium album)
In short: as §2
`CCSc1ccccc1-c1sc2c(Cl)cccc2c1-c1c(O)c(C)nn(C)c1=O` [4-090] was tested, and the “Herbicidal effect by foliage application, O: lambsquarters” value was 0 (Herbicidal rate of 5% or less (almost no effect)).
With `CCCC(=O)Oc1c(C)nn(C)c(=O)c1-c1c(-c2cccc(SCC)c2)sc2c(Cl)cccc12` [4-093] the “Herbicidal effect by foliage application, O: lambsquarters” value was 1 (Herbicidal rate of 5% or more and less than 20%).

The compounds below were run on chickweed (assay: Test Example 5: herbicidal effect by foliage application, plastic box (Table 20, symbol P)). Details: amount of applied herbicide 320 g/ha; foliage application after 14-day growth; evaluated three weeks after application.
Assay type: in vivo, common chickweed (Stellaria media)
In short: as §2
In the case of `CCSc1ccccc1-c1sc2c(Cl)cccc2c1-c1c(O)c(C)nn(C)c1=O` [4-090], the “Herbicidal effect by foliage application, P: chickweed” value is reported as 0 (Herbicidal rate of 5% or less (almost no effect)).
With `CCCC(=O)Oc1c(C)nn(C)c(=O)c1-c1c(-c2cccc(SCC)c2)sc2c(Cl)cccc12` [4-093] the “Herbicidal effect by foliage application, P: chickweed” value was 1 (Herbicidal rate of 5% or more and less than 20%).

Each compound was assayed on persian speedwell (assay: Test Example 5: herbicidal effect by foliage application, plastic box (Table 20, symbol R)). Details: amount of applied herbicide 320 g/ha; foliage application after 14-day growth; evaluated three weeks after application.
Assay type: in vivo, Persian speedwell (Veronica persica)
In short: as §2
`CCSc1ccccc1-c1sc2c(Cl)cccc2c1-c1c(O)c(C)nn(C)c1=O` [4-090] was tested, and the “Herbicidal effect by foliage application, R: persian speedwell” value was 1 (Herbicidal rate of 5% or more and less than 20%).
In the case of `CCCC(=O)Oc1c(C)nn(C)c(=O)c1-c1c(-c2cccc(SCC)c2)sc2c(Cl)cccc12` [4-093], the “Herbicidal effect by foliage application, R: persian speedwell” value is reported as 3 (Herbicidal rate of 40% or more and less than 70%).
